Assay results published in the supplement of paper PMC10307832.

Key:
Assay in all cases: relative viability (nuclei count vs DMSO), 5 days (fraction); higher = more cells survive
[1] = compound: CN1CCN(c2ccc3nc(-c4c(N)c5c(F)cccc5[nH]c4=O)[nH]c3c2)CC1 [Dovitinib] + CC(C)C[C@H](NC(=O)[C@H](Cc1ccccc1)NC(=O)c1cnccn1)B(O)O [Bortezomib] (partner 0.002 µM)
Method in brief: (§1)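 Medians of duplicate plates are given as relative viability. That measure is the nuclei count in treated wells divided by the count in vehicle wells. Counts were taken on 4× images of lung cancer cell lines in 1536-well plates, 5 days after pin-tool dosing the day after seeding with one drug alone or a fixed anchor-drug dose plus five library-drug doses (not always all listed) in √10 steps.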

[2] = compound: CN1CCN(c2ccc3nc(-c4c(N)c5c(F)cccc5[nH]c4=O)[nH]c3c2)CC1 [Dovitinib] + CC(=O)Nc1cccc(-n2c(=O)n(C3CC3)c(=O)c3c(Nc4ccc(I)cc4F)n(C)c(=O)c(C)c32)c1 [Trametinib] (partner 0.02 µM)
Method in brief: as §1

[3] = compound: CN1CCN(c2ccc3nc(-c4c(N)c5c(F)cccc5[nH]c4=O)[nH]c3c2)CC1 [Dovitinib] + O=C(c1cc(Cc2n[nH]c(=O)c3ccccc23)ccc1F)N1CCN(C(=O)C2CC2)CC1 [Olaparib] (partner 8 µM)
Method in brief: as §1

[4] = compound: CN1CCN(c2ccc3nc(-c4c(N)c5c(F)cccc5[nH]c4=O)[nH]c3c2)CC1 [Dovitinib] + CS(=O)(=O)N1CCN(Cc2cc3nc(-c4cccc5[nH]ncc45)nc(N4CCOCC4)c3s2)CC1 [Pictilisib] (partner 1 µM)
Method in brief: as §1

Row | Cell Line | relative viability ([1]; first compound 0.02 µM) | relative viability ([1]; first compound 0.06325 µM) | relative viability ([1]; first compound 0.2 µM) | relative viability ([1]; first compound 0.6325 µM) | relative viability ([1]; first compound 2 µM) | relative viability ([2]; first compound 0.02 µM) | relative viability ([2]; first compound 0.06325 µM) | relative viability ([2]; first compound 0.2 µM) | relative viability ([2]; first compound 0.6325 µM) | relative viability ([2]; first compound 2 µM) | relative viability ([3]; first compound 0.02 µM) | relative viability ([3]; first compound 0.06325 µM) | relative viability ([3]; first compound 0.2 µM) | relative viability ([3]; first compound 0.6325 µM) | relative viability ([3]; first compound 2 µM) | relative viability ([4]; first compound 0.02 µM) | relative viability ([4]; first compound 0.06325 µM) | relative viability ([4]; first compound 0.2 µM) | relative viability ([4]; first compound 0.6325 µM) | relative viability ([4]; first compound 2 µM)
1 | NCI-H1734 | 0.845 | 0.941 | 0.933 | 0.948 | 0.87 | 0.652 | 0.68 | 0.762 | 0.651 | 0.642 | 0.66 | 0.648 | 0.547 | 0.605 | 0.678 | 0.475 | 0.457 | 0.413 | 0.437 | 0.397
2 | NCI-H1755 | 0.97 | 0.923 | 0.957 | 0.928 | 0.955 | 0.831 | 0.766 | 0.794 | 0.733 | 0.758 | 0.893 | 0.858 | 0.914 | 0.842 | 0.878 | 0.494 | 0.399 | 0.465 | 0.452 | 0.46
3 | NCI-H1792 | 0.938 | 0.935 | 0.998 | 1.04 | 0.918 | 0.394 | 0.457 | 0.416 | 0.46 | 0.36 | 0.582 | 0.41 | 0.404 | 0.614 | 0.548 | 0.315 | 0.205 | 0.294 | 0.288 | 0.291
4 | NCI-H1915 | 0.873 | 0.963 | 0.955 | 0.91 | 0.986 | 0.275 | 0.282 | 0.306 | 0.283 | 0.319 | 0.253 | 0.27 | 0.271 | 0.264 | 0.257 | 0.877 | 0.893 | 0.912 | 0.891 | 0.961
5 | NCI-H1975 | 0.389 | 0.48 | 0.377 | 0.373 | 0.405 | 0.404 | 0.405 | 0.329 | 0.382 | 0.388 | 0.733 | 0.912 | 0.671 | 0.792 | 0.74 | 0.299 | 0.271 | 0.325 | 0.324 | 0.274
6 | NCI-H1993 | 1.42 | 1.14 | 1.05 | 1.13 | 0.941 | 0.517 | 0.481 | 0.489 | 0.58 | 0.502 | 1.07 | 0.961 | 1.08 | 0.912 | 0.982 | 0.762 | 0.886 | 0.825 | 0.819 | 0.787
7 | NCI-H2009 | 0.816 | 0.926 | 0.991 | 0.974 | 1.08 | 0.291 | 0.301 | 0.289 | 0.228 | 0.265 | 0.651 | 0.668 | 0.657 | 0.671 | 0.832 | 0.781 | 0.74 | 0.795 | 0.854 | 0.725
